Reference: patent publication US9833497B2, “Human originated EGF domain proteins and use of the same” (CHENGDU SOURCEBIO LIMITED-LIABILITY COMPANY, priority 2013, dated 2017)

How the values were obtained:
Assay type in all cases: cell-based
[1] = test system: E. coli BL21; experiment: MIC against Gram-negative bacteria: E. coli BL21; conditions: E. coli BL21; 96-well plate, 5×10^5 CFU/mL, 37° C., 10 h
Method in brief: (§1)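 Bacteria grown in LB at 37° C with shaking to McFarland 0.5, pelleted and resuspended in fresh LB, then seeded at 5×10^5 CFU/mL per well. Purified recombinant human EGF domain proteins were two-fold serially diluted in triplicate and plates shaken at 37° C, 175 rpm. MIC is the lowest protein concentration with no bacterial growth.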

[2] = test system: E. coli DH5α; experiment: Antibacterial activity: MIC and growth curve against E. coli DH5α in 96-well plate; conditions: minimal inhibitory concentration against E. coli DH5α; 96-well plate, 5×10^5 CFU/mL, 37° C., judged after 8 h
Method in brief: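 MIC taken as lowest protein level with no bacterial growth, tracked by A600 every 30 min during 37 °C, 175 rpm culture. Two-fold protein series 50-12.5 μg/mL final, triplicate wells, against 5×10^5 CFU/mL of LB-washed mid-log cells.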

[3] = test system: Citrobacter diversus; experiment: MIC against Gram-negative bacteria: Citrobacter diversus; conditions: Citrobacter diversus; 96-well plate, 5×10^5 CFU/mL, 37° C., 10 h
Method in brief: as §1

[4] = test system: Aeromonas hydrophila; experiment: MIC against Gram-negative bacteria: Aeromonas hydrophila; conditions: Aeromonas hydrophila; 96-well plate, 5×10^5 CFU/mL, 37° C., 10 h
Method in brief: as §1

[5] = test system: Moraxella catarrhalis; experiment: MIC against Gram-negative bacteria: Moraxella catarrhalis; conditions: Moraxella catarrhalis; 96-well plate, 5×10^5 CFU/mL, 37° C., 10 h
Method in brief: as §1

[6] = test system: Pseudomonas aeruginosa; experiment: MIC against Gram-negative bacteria: Pseudomonas aeruginosa; conditions: Pseudomonas aeruginosa; 96-well plate, 5×10^5 CFU/mL, 37° C., 10 h
Method in brief: as §1

[7] = test system: Enterobacter cloacae; experiment: MIC against Gram-negative bacteria: Enterobacter cloacae; conditions: Enterobacter cloacae; 96-well plate, 5×10^5 CFU/mL, 37° C., 10 h
Method in brief: as §1

[8] = test system: Proteus vulgaris; experiment: MIC against Gram-negative bacteria: Proteus vulgaris; conditions: Proteus vulgaris; 96-well plate, 5×10^5 CFU/mL, 37° C., 10 h
Method in brief: as §1

[9] = test system: Proteus mirabilis; experiment: MIC against Gram-negative bacteria: Proteus mirabilis; conditions: Proteus mirabilis; 96-well plate, 5×10^5 CFU/mL, 37° C., 10 h
Method in brief: as §1

[10] = test system: Klebsiella pneumonia; experiment: MIC against Gram-negative bacteria: Klebsiella pneumonia; conditions: Klebsiella pneumonia; 96-well plate, 5×10^5 CFU/mL, 37° C., 10 h
Method in brief: as §1

[11] = test system: Serratia marcescens; experiment: MIC against Gram-negative bacteria: Serratia marcescens; conditions: Serratia marcescens; 96-well plate, 5×10^5 CFU/mL, 37° C., 10 h
Method in brief: as §1

| Substance | MIC against E. coli BL21 [1] [µg/mL] | MIC [2] [µg/mL] | MIC against C. diversus [3] [µg/mL] | MIC against A. hydrophila [4] [µg/mL] | MIC against M. catarrhalis [5] [µg/mL] | MIC against P. aeruginosa [6] [µg/mL] | MIC against E. cloacae [7] [µg/mL] | MIC against P. vulgaris [8] [µg/mL] | MIC against P. mirabilis [9] [µg/mL] | MIC against K. pneumonia [10] [µg/mL] | MIC against S. marcescens [11] [µg/mL] |
| --- | --- | --- | --- | --- | --- | --- | --- | --- | --- | --- | --- |
| PRT1268 (CAVNNGGCDRTCKDTSTGVHCSCPVGFTLQLDGKTC; listed as Homo sapiens) | 12.5 | 50 | 12.5 | 50 | 50 | 50 | 25 | 25 | 12.5 | 12.5 | 50 |
| PRT1269 (DIDECQTRNGGCDHFCKNIVGSFDCGCKKGFKLLTDEKSCQ; listed as Homo sapiens) | 50 | 12.5 | 12.5 | 50 | 50 | 25 | 25 | 50 | 12.5 | 12.5 | 12.5 |
| PRT1270 (DVDECSLDRTCDHSCINHPGTFACACNRGYTLYGFTHCG; listed as Homo sapiens) | 12.5 | 50 | 12.5 | 25 | 25 | 50 | 50 | 25 | 50 | 12.5 | 12.5 |
| PRT1271 (DTNECSINNGGCQQVCVNTVGSYECQCHPGYKLHWNKKDCV; listed as Homo sapiens) | 50 | 25 | 12.5 | 50 | 50 | 12.5 | 12.5 | 50 | 12.5 | 50 | 12.5 |
| PRT1272 (DVDECVEGTDNCHIDAICQNTPRSYKCICKSGYTGDGKHCK; listed as Homo sapiens) | 50 | 25 | 50 | 12.5 | 12.5 | 100 | 25 | 12.5 | 50 | 50 | 50 |
| PRT1273 (DVDECEREDNAGCVHDCVNIPGNYRCTCYDGFHLAHDGHNCL; listed as Homo sapiens) | 50 | 12.5 | 25 | 50 | 12.5 | 12.5 | 12.5 | 12.5 | 50 | 50 | 50 |
| PRT1274 (DVDECAEGNGGCQQSCVNMMGSYECHCREGFFLSDNQ; listed as Homo sapiens) | 50 | 12.5 | 25 | 50 | 12.5 | 12.5 | 12.5 | 50 | 25 | 50 | 25 |
| PRT1275 (EGMNCMNKNHGCAHICRETPKGGIACECRPGFELTKNQRDCK; listed as Homo sapiens) | 50 | 12.5 | 50 | 50 | 12.5 | 12.5 | 12.5 | 25 | 50 | 50 | 12.5 |
| PRT1276 (LTCNYGNGGCQHTCDDTEQGPRCGCHIKFVLHTDGKTCI; listed as Homo sapiens) | 12.5 | 50 | 50 | 12.5 | 12.5 | 50 | 50 | 12.5 | 50 | 12.5 | 50 |
| PRT1277 (ETCAVNNGGCDSKCHDAATGVHCTCPVGFMLQPDRKTCK; listed as Homo sapiens) | 50 | 12.5 | 12.5 | 50 | 25 | 12.5 | 12.5 | 25 | 12.5 | 50 | 12.5 |
| PRT1278 (DIDECRLNNGGCDHICRNTVGSFECSCKKGYKLLINERNCQ; listed as Homo sapiens) | 12.5 | 25 | 12.5 | 12.5 | 12.5 | 12.5 | 12.5 | 12.5 | 12.5 | 12.5 | 12.5 |
| PRT1281 (DLCLSSPCQNQGTCHNDPLEVYRCACPSGYKGRDCE; listed as Homo sapiens) | 12.5 | 50 | 50 | 12.5 | 12.5 | 25 | 25 | 12.5 | 50 | 50 | 50 |
| PRT1282 (SLDSCSSGPCENGGTCHAQEGEDAPFTCSCPTGFEGPTCG; listed as Homo sapiens) | 50 | 12.5 | 50 | 12.5 | 25 | 12.5 | 25 | 25 | 12.5 | 50 | 50 |
| PRT1283 (NTDDCVDHACANGGVCVDGVGNYTCQCPLQYEGKACE; listed as Homo sapiens) | 50 | 12.5 | 50 | 12.5 | 12.5 | 12.5 | 12.5 | 12.5 | 25 | 50 | 25 |
| PRT1284 (LVDLCSPDLNPCQHEAQCVGTPDGPRCECMPGYAGDNCS; listed as Homo sapiens) | 50 | 25 | 12.5 | 12.5 | 50 | 25 | 25 | 25 | 12.5 | 12.5 | 12.5 |
